These results are taken from patent US20100204203A1, “Chemical Compounds 637: Pyridopyrimidinediones as PDE4 Inhibitors” (priority 2007, published 2010).

Molecules are shown by their SMILES. Counter-ions that a name gives are not always drawn.

recombinant Human Phosphodiesterase B2 (PDE4B2), sequence (Q07343 1-564 isoform Q07343-2): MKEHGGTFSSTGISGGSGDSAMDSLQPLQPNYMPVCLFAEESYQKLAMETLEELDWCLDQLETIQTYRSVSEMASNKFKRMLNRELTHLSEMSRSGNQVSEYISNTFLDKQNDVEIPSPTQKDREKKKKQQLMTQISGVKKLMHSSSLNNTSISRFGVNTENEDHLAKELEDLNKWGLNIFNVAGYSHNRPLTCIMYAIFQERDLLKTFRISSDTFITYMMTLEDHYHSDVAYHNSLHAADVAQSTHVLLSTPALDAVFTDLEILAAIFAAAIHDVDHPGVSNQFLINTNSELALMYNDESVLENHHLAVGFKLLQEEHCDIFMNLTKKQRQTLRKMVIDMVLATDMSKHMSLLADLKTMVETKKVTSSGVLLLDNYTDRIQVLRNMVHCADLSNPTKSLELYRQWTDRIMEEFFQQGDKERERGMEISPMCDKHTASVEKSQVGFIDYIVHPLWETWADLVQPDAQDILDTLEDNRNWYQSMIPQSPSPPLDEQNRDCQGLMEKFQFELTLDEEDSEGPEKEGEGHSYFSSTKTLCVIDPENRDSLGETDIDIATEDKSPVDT

For this assay, the target named is recombinant Human Phosphodiesterase B2 (PDE4B2) (Homo sapiens, UniProt Q07343). The assay can be described thus: Human Phosphodiesterase B2 Radiometric Assay (yttrium silicate SPA beads, [3H]cyclic AMP). It is filed as biochemical. The following applies: recombinant human PDE4B2, radiometric SPA assay, 8 nM [3H]cyclic AMP; read-out: PDE4B2 pIC50 (converted). The method, boiled down:
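Compounds were preincubated 30 min at 30 °C with 0.1 mg/mL PDE4B2 in 50 mM HEPES pH 7.5, 8.3 mM MgCl2, 1.7 mM EGTA, 0.01% Brij 35. Then 8 nM [3H]cAMP was added for 20 min, stopped with yttrium silicate SPA beads plus 18 mM ZnSO4 capturing product 5′AMP; pIC50 by curve fitting.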
`CN(C)CCN(C)Cc1ccc(-c2cccc(-n3c(=O)n([C@H]4CC[C@@H](NC(=O)c5cn6c(n5)CCCC6)CC4)c(=O)c4cc(F)cnc43)c2)cc1` [Example 133, N-{cis-4-[1-(4′-{[[2-(dimethylamino)ethyl](methyl)amino]methyl}biphenyl-3-yl)-6-fluoro-2,4-dioxo-1,4-dihydropyrido[2,3-d]pyrimidin-3(2H)-yl]cyclohexyl}-5,6,7,8-tetrahydroimidazo[1,2-a]pyridine-2-carboxamide]: the IC50 was 0.01 nM. The same measure for `Cc1c(CN[C@H]2CC[C@@H](n3c(=O)c4cc(F)cnc4n(-c4cccc(-c5ccc(CN6CCN(C(C)C)CC6)cc5)c4)c3=O)CC2)ncn1Cc1ccccc1` [Example 263, 3-(cis-4-{[(1-benzyl-5-methyl-1H-imidazol-4-yl)methyl]amino}cyclohexyl)-6-fluoro-1-{4′-[(4-isopropylpiperazin-1-yl)methyl]biphenyl-3-yl}pyrido[2,3-d] pyrimidine-2,4(1H,3H)-dione]: 1.58 nM.

As to `O=C(N[C@H]1CC[C@@H](n2c(=O)c3cc(F)cnc3n(-c3cccc(-c4ccc(CN5CCC[C@H]5CO)cc4)c3)c2=O)CC1)c1cn2c(n1)CCCC2` [Example 226, N-{cis-4-[6-fluoro-1-(4′-{[(2S)-2-(hydroxymethyl)pyrrolidin-1-yl]methyl}biphenyl-3-yl)-2,4-dioxo-1,4-dihydropyrido[2,3-d]pyrimidin-3(2H)-yl]cyclohexyl}-5,6,7,8-tetrahydroimidazo[1,2-a]pyridine-2-carboxamide], the IC50 was 0.0501 nM. `CC(C)NCCc1ccc(-c2cccc(-n3c(=O)n([C@H]4CC[C@@H](NC(=O)c5cn6cc(F)ccc6n5)CC4)c(=O)c4cc(F)cnc43)c2)cc1` [Example 98, 6-fluoro-N-{cis-4-[6-fluoro-1-{4′-[2-(isopropylamino)ethyl]biphenyl-3-yl}-2,4-dioxo-1,4-dihydropyrido[2,3-d]pyrimidin-3(2H)-yl]cyclohexyl}imidazo[1,2-a]pyridine-2-carboxamide]: the IC50 is 0.126 nM. The value for `CNC1CCN(Cc2ccc(-c3cccc(-n4c(=O)n([C@H]5CC[C@@H](NC(=O)c6cn7cc(F)ccc7n6)CC5)c(=O)c5cc(F)cnc54)c3)cc2)CC1` [Example 61, 6-fluoro-N-{cis-4-[6-fluoro-1-(4′-{[4-(methylamino)piperidin-1-yl]methyl}biphenyl-3-yl)-2,4-dioxo-1,4-dihydropyrido[2,3-d]pyrimidin-3(2H)-yl]cyclohexyl}imidazo[1,2-a]pyridine-2-carboxamide] was 0.02 nM; that for `CC(C)N1CCN(Cc2ccc(-c3cccc(-n4c(=O)n([C@H]5CC[C@@H](NCc6cccc(C#N)c6)CC5)c(=O)c5cc(F)cnc54)c3)cc2)CC1` [Example 259, 3-[({cis-4-[6-fluoro-1-{4′-[(4-isopropylpiperazin-1-yl)methyl]biphenyl-3-yl}-2,4-dioxo-1,4-dihydropyrido[2,3-d]pyrimidin-3(2H)-yl]cyclohexyl}amino)methyl] benzonitrile] was 0.631 nM; that for `O=C(N[C@H]1CC[C@@H](n2c(=O)c3cc(F)cnc3n(-c3cccc(-c4ccc(CCN5CCOCC5)cc4)c3)c2=O)CC1)c1cn2cc(F)ccc2n1` [Example 50, 6-fluoro-N-{cis-4-[6-fluoro-1-[4′-(2-morpholin-4-ylethyl)biphenyl-3-yl]-2,4-dioxo-1,4-dihydropyrido[2,3-d]pyrimidin-3(2H)-yl]cyclohexyl}imidazo[1,2-c]pyridine-2-carboxamide] was 0.00794 nM.

On to `Cc1cc(C)n2nc(C(=O)N[C@H]3CC[C@@H](n4c(=O)c5cc(F)cnc5n(-c5cccc(-c6ccc(CN7CCC(N8CCCCC8)CC7)cc6)c5)c4=O)CC3)cc2n1` [Example 362, N-{cis-4-[1-[4′-(1,4′-bipiperidin-1′-ylmethyl)biphenyl-3-yl]-6-fluoro-2,4-dioxo-1,4-dihydropyrido[2,3-d]pyrimidin-3(2H)-yl]cyclohexyl}-5,7-dimethylpyrazolo[1,5-a]pyrimidine-2-carboxamide], for which the IC50 was 0.0501 nM. The value for `Cc1ccccc1-c1cccc(-n2c(=O)n([C@H]3CC[C@@H](N)CC3)c(=O)c3cc(F)cnc32)c1` [Example 52, 3-(cis-4-aminocyclohexyl)-6-fluoro-1-(2′-methylbiphenyl-3-yl)pyrido[2,3-d]pyrimidine-2,4(1H,3H)-dione] was 2.51 nM; that for `O=C(N[C@H]1CC[C@@H](n2c(=O)c3cc(F)cnc3n(-c3cccc(-c4ccc(CN5CCCNCC5)cc4)c3)c2=O)CC1)c1cnc2ccccc2n1` [Example 352, N-{cis-4-[1-[4′-(1,4-diazepan-1-ylmethyl)biphenyl-3-yl]-6-fluoro-2,4-dioxo-1,4-dihydropyrido[2,3-d]pyrimidin-3(2H)-yl]cyclohexyl} quinoxaline-2-carboxamide] was 0.0158 nM; that for `CC(C)NC(=O)CN1CCN(Cc2ccc(-c3cccc(-n4c(=O)n([C@H]5CC[C@@H](NC(=O)c6cn7c(n6)CCCC7)CC5)c(=O)c5cc(F)cnc54)c3)cc2)CC1` [Example 219, N-{cis-4-[6-fluoro-1-[4′-({4-[2-(isopropylamino)-2-oxoethyl]piperazin-1-yl}methyl)biphenyl-3-yl]-2,4-dioxo-1,4-dihydropyrido[2,3-d]pyrimidin-3(2H)-yl]cyclohexyl}-5,6,7,8-tetrahydroimidazo[1,2-a]pyridine-2-carboxamide] was 0.00501 nM. The same measure for `O=C(N[C@H]1CC[C@@H](n2c(=O)c3cc(F)cnc3n(-c3cccc(-c4ccc(O)cc4CN4CCNCC4)c3)c2=O)CC1)c1cn2cc(F)ccc2n1` [Example 72, 6-fluoro-N-{cis-4-[6-fluoro-1-[4′-hydroxy-2′-(piperazin-1-ylmethyl)biphenyl-3-yl]-2,4-dioxo-1,4-dihydropyrido[2,3-d]pyrimidin-3(2H)-yl]cyclohexyl}imidazo[1,2-a]pyridine-2-carboxamide trifluoroacetate salt]: 0.0501 nM; for `CN(C)C1(C(=O)N[C@H]2CC[C@@H](n3c(=O)c4cc(F)cnc4n(-c4cccc(-c5ccc(CN6CCN(CCO)CC6)cc5)c4)c3=O)CC2)CC1` [Example 211, 1-(dimethylamino)-N-{cis-4-[6-fluoro-1-(4′-{[4-(2-hydroxyethyl)piperazin-1-yl]methyl}biphenyl-3-yl)-2,4-dioxo-1,4-dihydropyrido[2,3-d]pyrimidin-3(2H)-yl]cyclohexyl}cyclopropanecarboxamide]: 0.0158 nM. The value for `CC(C)(C)OC(=O)NCc1ccc(-c2cccc(-n3c(=O)n([C@H]4CC[C@@H](NC(=O)c5cn6cc(F)ccc6n5)CC4)c(=O)c4cc(F)cnc43)c2)cc1` [Example 21, tert-butyl ({3′-[6-fluoro-3-(cis-4-{[(6-fluoroimidazo[1,2-a]pyridin-2-yl)carbonyl]amino}cyclohexyl)-2,4-dioxo-3,4-dihydropyrido[2,3-d]pyrimidin-1(2H)-yl]biphenyl-4-yl}methyl)carbamate.] was 0.0501 nM; that for `C[C@@H]1CN(Cc2ccc(-c3cccc(-n4c(=O)n([C@H]5CC[C@@H](NC(=O)C6(N(C)C)CC6)CC5)c(=O)c5cc(F)cnc54)c3)cc2)C[C@H](C)O1` [Example 209, 1-(dimethylamino)-N-{cis-4-[1-(4′-{[(2R,6S)-2,6-dimethylmorpholin-4-yl]methyl}biphenyl-3-yl)-6-fluoro-2,4-dioxo-1,4-dihydropyrido[2,3-d]pyrimidin-3(2H)-yl]cyclohexyl} cyclopropanecarboxamide] was 0.00631 nM. In the case of `Cc1cnc(C(=O)N[C@H]2CC[C@@H](n3c(=O)c4cc(F)cnc4n(-c4cccc(-c5ccc(CN6CCC(N7CCCCC7)CC6)cc5)c4)c3=O)CC2)cn1` [Example 297, N-{cis-4-[1-[4′-(1,4′-bipiperidin-1′-ylmethyl)biphenyl-3-yl]-6-fluoro-2,4-dioxo-1,4-dihydropyrido[2,3-d]pyrimidin-3(2H)-yl]cyclohexyl}-5-methylpyrazine-2-carboxamide], the IC50 was 0.0316 nM. In the case of `CC(C)CCNCc1ccc(-c2cccc(-n3c(=O)n([C@H]4CC[C@@H](NC(=O)c5cn6c(n5)CCCC6)CC4)c(=O)c4cc(F)cnc43)c2)cc1` [Example 122, N-{cis-4-[6-fluoro-1-(4′-{[(3-methylbutyl)amino]methyl}biphenyl-3-yl)-2,4-dioxo-1,4-dihydropyrido[2,3-d]pyrimidin-3(2H)-yl]cyclohexyl}-5,6,7,8-tetrahydroimidazo[1,2-a]pyridine-2-carboxamide], the IC50 is 0.0501 nM.

With `O=C(N[C@H]1CC[C@@H](n2c(=O)c3cc(F)cnc3n(-c3cccc(-c4ccccc4CN4CCOCC4)c3)c2=O)CC1)c1ccccc1O` [Example 63, N-{cis-4-[6-fluoro-1-[2′-(morpholin-4-ylmethyl)biphenyl-3-yl]-2,4-dioxo-1,4-dihydropyrido[2,3-d]pyrimidin-3(2H)-yl]cyclohexyl}-2-hydroxybenzamide], the IC50 is 0.0794 nM.

On to `Cn1ncc(CN[C@H]2CC[C@@H](n3c(=O)c4cc(F)cnc4n(-c4cccc(-c5ccc(CN6CCCOCC6)cc5)c4)c3=O)CC2)c1-c1ccccc1` [Example 265, 6-fluoro-3-(cis-4-{[(1-methyl-5-phenyl-1H-pyrazol-4-yl)methyl]amino}cyclohexyl)-1-[4′-(1,4-oxazepan-4-ylmethyl)biphenyl-3-yl]pyrido[2,3-d]pyrimidine-2,4(1H,3H)-dione], for which the IC50 was 2 nM. The same measure for `CC(=O)N[C@H]1CC[C@@H](n2c(=O)c3cc(F)cnc3n(-c3cccc(-c4ccc(CN5CCN(C(C)C)CC5)cc4)c3)c2=O)CC1` [Example 232, N-{cis-4-[6-Fluoro-1-{4′-[(4-isopropylpiperazin-1-yl)methyl]biphenyl-3-yl}-2,4-dioxo-1,4-dihydropyrido[2,3-d]pyrimidin-3(2H)-yl]cyclohexyl}acetamide]: 0.251 nM.
